Results from patent US4560692A, “4-Piperidino-2-phenylquinolines” (Hoffmann-La Roche Inc., priority 1984, dated 1985).
pIC50: −log10 of the molar value. Read-outs that look alike come from different tables or passages of the source.

Experiments:
[1] = biological target: ^3 H-Diazepam binding, rat brain cortical fragments; experiment: ^3 H-Diazepam binding assay; settings: inhibition of ^3 H-Diazepam binding by 50%
Experimental: Rat brain cortical fragments are prepared and the binding procedures performed as described by Mohler and Okada (Life Sciences, 20, 2101, 1977) except that Tris buffer is substituted for Krebs buffer. Drugs are assayed in triplicate. Radioactivity is measured by liquid scintillation counting.

[2] = 24 hour acute toxicity (LD-50); settings: in vivo, ">" = not tested above indicated value
Experimental: (§1) Utilizing the procedures given below, the compounds of formula I synthesized in the previous examples were assayed for antimetrezol activity and ^3 H-diazepam binding activity. The 24 hour acute toxicity (LD-50, expressed as mg/kg) of each of these compounds was also determined in the standard fashion.

[3] = system: convulsive seizures (Ptz. administered intraveneously); experiment: Intravenous antipentylenetetrazole (Ptz.) test, oral compound, protection against convulsions; assay type: in vivo, Male CF-1 mice; settings: Mus musculus
Experimental: as §1
Male CF-1 mice, 45-54 days old, housed in the same facility for one week and food-deprived for about 24 hours are used in this test. […] One hour later, Ptz. is administered intraveneously at 70 mg/kg (convulsant dose 100) and animals are observed 30 seconds for protection against convulsions. If the compound is active orally 8 animals are used per dose level. […] Calculations: The ED50 values and 95% fiducial limits are calculated using a computer program based on the method of D. J. Finney ("Probit Analysis", Cambridge University Press, Cambridge, England, 1971).

[4] = compounds of formula I, read-out: ^3 H-Dz. IC50
[5] = compounds of formula I, oral, 1 h before Ptz. 70 mg/kg i.v., mice, ">" = not tested above indicated value, read-out: Ptz. ED50
[6] = po, 1 h, read-out: ED50 (95% Fiducial Limits)

| SMILES | pIC50 [1, 4] | LD50 at 24 h [2] [mg/kg] | ED50 [3, 5] [mg/kg] | ED50 [3, 6] [mg/kg] | pIC50 ([1]; standard drugs, read-out: IC50) |
| --- | --- | --- | --- | --- | --- |
| Cc1ccc2nc(-c3ccc(F)cc3)cc(N3CCC(C(N)=O)CC3)c2c1 [1-[2-(4-fluorophenyl)-6-methyl-4-quinolinyl]-4-piperidinecarboxamide] | 7.47 | > 1000 | > 100 |  |  |
| Cc1ccc(-c2cc(N3CCC(C(N)=O)CC3)c3cc(F)ccc3n2)cc1 [1-[6-Fluoro-2-(4-methylphenyl)-4-quinolinyl]-4-piperidinecarboxamide] | 8.27 | > 1000 | 88 |  |  |
| Cc1ccc2nc(-c3ccc(Cl)cc3)cc(N3CCC(C(N)=O)CC3)c2c1 [1-[2-(4-Chlorophenyl)-6-methyl-4-quinolinyl]-4-piperidinecarboxamide] | 6.34 |  |  |  |  |
| CN(C)C(=O)C1CCN(c2cc(-c3ccc(Cl)cc3)nc3ccccc23)CC1 [1-[2-(4-Chlorophenyl)-4-quinolinyl]-N,N-dimethyl-4-piperidinecarboxamide] | 7.10 | > 1000 | 24 |  |  |
| Cc1ccc(-c2cc(N3CCC(C(N)=O)CC3)c3cc(C)ccc3n2)cc1 [1-[6-Methyl-2-(4-methylphenyl)-4-quinolinyl]-4-piperidinecarboxamide] | 6.54 |  |  |  |  |
| NC(=O)C1CCN(c2cc(-c3ccc(Cl)cc3)nc3ccc(Cl)cc23)CC1 [1-[6-chloro-2-(4-chlorophenyl)-4-quinolinyl]-4-piperidinecarboxamide] | 6.69 |  |  |  |  |
| CCNC(=O)C1CCN(c2cc(-c3ccc(Cl)cc3)nc3ccccc23)CC1 [1-[2-(4-chlorophenyl)-4-quinolinyl]-N-ethyl-4-piperidinecarboxamide] | 8.05 | > 1000 | 26 |  |  |
| CCN(CC)C(=O)C1CCN(c2cc(-c3ccc(Cl)cc3)nc3ccccc23)CC1 [1-[2-(4-Chlorophenyl)-4-quinolinyl]-N,N-diethyl-4-piperidinecarboxamide] | 6.30 |  |  |  |  |
| Cc1ccc(-c2cc(N3CCC(C(N)=O)CC3)c3cc(Cl)ccc3n2)cc1 [1-[6-Chloro-2-(4-methylphenyl)-4-quinolinyl]-4-piperidinecarboxamide] | 7.22 | > 1000 | > 100 |  |  |
| CCCNC(=O)C1CCN(c2cc(-c3ccccc3)nc3ccc(F)cc23)CC1 [1-[6-Fluoro-2-phenyl-4-quinolinyl]-N-propyl-4-piperidinecarboxamide] | 7.89 | > 1000 | > 100 |  |  |
| Cc1ccc2nc(-c3ccccc3)cc(N3CCC(C(N)=O)CC3)c2c1 [1-[6-Methyl-2-phenyl-4-quinolinyl]-4-piperidinecarboxamide] | 7.55 | > 1000 | 90 |  |  |
| NC(=O)C1CCN(c2cc(-c3ccc(F)cc3)nc3ccccc23)CC1 [1-[2-(4-Fluorophenyl)-4-quinolinyl]-4-piperidinecarboxamide] | 8.96 | > 1000 | > 100 |  |  |
| CCNC(=O)C1CCN(c2cc(-c3ccccc3)nc3ccc(F)cc23)CC1 [N-Ethyl-1-[6-fluoro-2-phenyl-4-quinolinyl]-4-piperidinecarboxamide] | 8.55 | > 1000 | 58 |  |  |
| CNC(=O)C1CCN(c2cc(-c3ccc(F)cc3)nc3ccc(Cl)cc23)CC1 [1-[6-Chloro-2-(4-fluorophenyl)-4-quinolinyl]-N-methyl-4-piperidinecarboxamide] | 7.98 | > 1000 | 37 |  |  |
| CN1C(=O)CN=C(c2ccccc2)c2cc(Cl)ccc21 [Diazepam, reference compound] |  |  |  | 1 |  |
| NC(=O)C1CCN(c2cc(-c3ccccc3)nc3ccc(Cl)cc23)CC1 [1-[6-Chloro-2-phenyl-4-quinolinyl]-4-piperidinecarboxamide] | 7.02 | > 1000 | 50 |  |  |
| NC(=O)C1CCN(c2cc(-c3ccccc3)nc3ccc(F)cc23)CC1 [1-[6-Fluoro-2-phenyl-4-quinolinyl]-4-piperidinecarboxamide] | 8.44 | > 1000 | 120 |  |  |
| NC(=O)C1CCN(c2cc(-c3ccc(Cl)cc3)nc3ccc(F)cc23)CC1 [1-[2-(4-Chlorophenyl)-6-fluoro-4-quinolinyl]-4-piperidinecarboxamide] | 7.44 | > 1000 | 15 |  |  |
| NC(=O)C1CCN(c2cc(-c3ccc(F)cc3)nc3ccc(F)cc23)CC1 [1-[6-Fluoro-2-(4-fluorophenyl)-4-quinolinyl]-4-piperidinecarboxamide] | 9.00 | > 1000 | 5 |  |  |
| CNC(=O)C1CCN(c2cc(-c3ccc(Cl)cc3)nc3ccccc23)CC1 [1-[2-(4-Chlorophenyl)-4-quinolinyl]-N-methyl-4-piperidinecarboxamide] | 7.71 | > 1000 | 9 |  |  |
| NC(=O)C1CCN(c2cc(-c3ccc(Cl)cc3)nc3ccccc23)CC1 [1-[2-(4-chlorophenyl)-4-quinolinyl]-4-piperidinecarboxamide] | 7.54 | > 1000 | 24 |  |  |
| CCN(CC)CCN1C(=O)CN=C(c2ccccc2F)c2cc(Cl)ccc21 [Flurazepam, reference compound] |  |  |  |  | 7.81 |
| NC(=O)C1CCN(c2cc(-c3ccc(Br)cc3)nc3ccccc23)CC1 [1-[2-(4-Bromophenyl)-4-quinolinyl]-4-piperidinecarboxamide] | 7.46 | > 1000 | 41 |  |  |
| CCC1(c2ccccc2)C(=O)NC(=O)NC1=O [Sodium Phenobarbital, reference compound] |  |  |  | 19 |  |
| CNC(=O)C1CCN(c2cc(-c3ccc(F)cc3)nc3ccc(F)cc23)CC1 [1-6-Fluoro-2-(4-fluorophenyl)-4-quinolinyl)]-N-methyl-4-piperidinecarboxamide] | 8.74 | > 1000 | 13 |  |  |
| Cc1ccc(-c2cc(N3CCC(C(N)=O)CC3)c3ccccc3n2)cc1 [1-[2-(4-methylphenyl)-4-quinolinyl]-4-piperidinecarboxamide] | 8.77 | > 1000 | 37 |  |  |
| CNC(=O)C1CCN(c2cc(-c3ccc(Cl)cc3)nc3ccc(F)cc23)CC1 [1-[6-Fluoro-2-(4-chlorophenyl)-4-quinolinyl]-N-methyl-4-piperidinecarboxamide] | 7.15 | > 1000 | > 300 |  |  |
| CCNC(=O)C1CCN(c2cc(-c3ccc(F)cc3)nc3ccc(F)cc23)CC1 [1-Ethyl-1-[6-fluoro-2-(4-fluorophenyl)-4-quinolinyl]-4-piperidinecarboxamide] | 8.52 | > 1000 | 22 |  |  |
| NC(=O)C1CCN(c2cc(-c3ccc(F)cc3)nc3ccc(Cl)cc23)CC1 [1-[6-Chloro-2-(4-fluorophenyl)-4-quinolinyl]-4-piperidinecarboxamide] | 7.55 | > 1000 | 29 |  |  |
| CNC1=Nc2ccc(Cl)cc2C(c2ccccc2)=[N+]([O-])C1 [Chlordiazepoxide, reference compound] |  |  |  | 3.9 |  |
